Starred links: 1 amine or outer side, 2 acyl side, 3 side chain; linkers in the order of their positions; H or OH if unused. Residues, ends and D or L forms follow the SMILES beside them. Groups on a side chain read outwards from the residue. *: point of attachment. TTDA(Palmitoyl) = CCCCCCCCCCCCCCCC(=O)NCCCOCCOCCOCCCN*; Suc = O=C(CCC(=O)[*:2])[*:1]
System: urinary metabolites
Assay: NMR-based metabolomics of urine of DIO mice
Type: in vivo, C57BL/6 mice
Set-up: key to DMA, Mean / DMG, Mean / MA, Mean / TMA, Mean / acetate, Mean / allantoin, Mean / carnitine, Mean / choline, Mean / cis-aconitate, Mean / creatine+creatinine, Mean / creatine, Mean / creatinine, Mean / ethanolamine, Mean / formate, Mean / galactose, Mean / glucose, Mean / glycine, Mean / lactate, Mean / succinate, Mean / vinylacetylglycine, Mean: TSA-normalized intensity of the metabolite's representative NMR signal
Conditions: urine of DIO mice, NMR metabolomics
Experimental: Urine samples for NMR-based metabolomics were collected prior to the start of the interventions and at the end of the experiment. For overnight urine collection (from 5 pm to 8 am), the mice were housed in individual metabolic cages (Tecniplast, Buguggiate, Italy) without access to food. Samples were collected with the addition of NaN3 and stored at -80°C until NMR analysis.
The urine samples were thawed at room temperature and centrifuged at 13 684 x g for 5 min prior to the NMR experiments. A 200-μl aliquot of supernatant was diluted with 340 μl of H2O mixed with 60 μl of phosphate buffer (1.5 M KH2PO4 in D2O containing 2 mM NaN3 and 0.1% trimethylsilyl propionic acid (TSP), pH 7.4) and transferred to a 5-mm NMR tube. The NMR data were acquired with a 600 MHz Bruker Avance III spectrometer (Bruker BioSpin, Rheinstetten, Germany) equipped with a 5-mm TCI cryogenic probe head. All of the experiments were performed at 300 K. Automatic tuning, matching, shimming and adjusting of the 90° pulse length were performed for each sample.
As mouse urine naturally contains urinary proteins, the NMR spectra were acquired using a Carr-Purcell-Meiboom-Gill (CPMG) pulse sequence with water presaturation (Bruker pulse sequence cpmgpr1d) to eliminate the strong protein background. […] For better metabolite identification, a short J-resolved experiment with presaturation (NS = 2, SW = 16 ppm, TD = 8k, number of increments = 40, SW = 78.125 Hz in the indirect dimension, and relaxation delay = 2 s) was executed for all samples. Additional two-dimensional ^1H-^1H correlation spectroscopy (COSY) and ^1H-^13C heteronuclear multiple-quantum correlation (HMQC) experiments (Bruker pulse sequences cosygpprqf and hmqcphpr) were performed for selected samples.
The acquired data were processed using Topspin 3.2 software (Bruker BioSpin, Rheinstetten, Germany). Line broadening of 0.3 Hz was applied on free induction decays (FIDs) prior to Fourier transformation. The spectra were automatically phased, baseline corrected and referenced to the signal of TSP (0.00 ppm).
The assignment of individual metabolites was achieved by comparing the proton spectra with the spectra of pure metabolites using Chenomx NMR Suite 7.6 (Chenomx Inc., Edmonton, AB, Canada), the HMDB database and previously published metabolomic data. The identification of metabolites was supported through J-resolved and COSY experiments and, if possible, confirmed using carbon chemical shifts extracted from the HMQC spectra.
For quantitation of individual metabolites, the CPMG spectra were uniformly binned in the range of 0.10–10.00 ppm to 0.01-ppm intervals using AMIX software (Bruker BioSpin, Rheinstetten, Germany). This procedure reduced the dimensionality of the data, eliminated chemical shift variations and thus simplified the reproducible automatic quantification. Regions corresponding to water (4.60–4.90 ppm) and urea (5.60–6.00 ppm) were removed prior to analysis. As the dilutions of the original urine samples differed (due to the differences in water intake during urine collection), all of the spectra were normalized to the total spectral area (TSA). For each identified metabolite, one representative signal was chosen and then quantified as the sum of appropriate adjacent 0.01-ppm bins to cover the whole signal width. The metabolite concentration was expressed as the TSA-normalized intensity of the respective signal. For selection of an appropriate statistical method (parametric or non-parametric) the Lilliefors test of normality was performed. […] Metabolite alterations with a P < 0.05 were considered statistically significant. Statistical analysis was performed using Matlab software (“MATLAB version 8.6 (R2015b). Natick, Massachusetts: The MathWorks Inc., 2015.,” n.d.). […]

[1] = difference of analog mean vs saline mean

SMILES: CCCCCCCCCCCCCCCC(=O)NCCCOCCOCCOCCCNC(=O)CCC(=O)NCCCC[C@H](NC(=O)[C@@H](NC(=O)[C@H](CCC(=O)O)NC(=O)[C@H](CCSC)NC(=O)[C@H](CO)NC(=O)[C@H](Cc1c[nH]cn1)NC(=O)[C@H](CCCNC(=N)N)NC(=O)[C@H](Cc1c[nH]cn1)NC(=O)[C@@H](NC(=O)[C@H](CCCNC(=N)N)NC(=O)[C@@H](N)CO)[C@@H](C)O)[C@@H](C)CC)C(=O)N[C@H](C(=O)N1CCC[C@H]1C(=O)N[C@@H](CC(=O)O)C(=O)N[C@H](C(=O)N[C@@H](CC(N)=O)C(=O)N1CCC[C@H]1C(=O)N[C@@H](C)C(=O)N[C@@H](Cc1c[nH]c2ccccc12)C(=O)N[C@@H](Cc1ccc(O)cc1)C(=O)N[C@@H](C)C(=O)N[C@@H](CO)C(=O)N[C@@H](CCCNC(=N)N)C(=O)NCC(=O)N[C@H](C(=O)N[C@@H](CCCNC(=N)N)C(=O)N1CCC[C@H]1C(=O)N[C@H](C(=O)NCC(=O)N[C@@H](CCCNC(=N)N)C(=O)N[C@@H](Cc1ccccc1)C(N)=O)C(C)C)[C@@H](C)CC)[C@@H](C)CC)[C@@H](C)O [analog 2] (H-SRTHRHSMEIK([Suc-TTDA(Palmitoyl)])TPDINPAWYASRGIRPVGRF-NH2; N-terminus assumed)
- creatine, Saline/analog % [1]: -0.033%
- creatinine, Saline/analog % [1]: 0.035%
- ethanolamine, Saline/analog % [1]: -0.025%
- formate, Saline/analog % [1]: 0.032%
- fumarate, Saline/analog % [1]: -0.055%
- galactose, Saline/analog % [1]: 0.041%
- glucose, Saline/analog % [1]: -0.039%
- glycine, Saline/analog % [1]: 0.016%
- hexanoylglycine + acids (0.88 ppm), Saline/analog % [1]: 0.157%
- hippurate (7.55 ppm), Saline/analog % [1]: 0.047%
- hippurate (7.64 ppm), Saline/analog % [1]: 0.039%
- hippurate (7.84 ppm), Saline/analog % [1]: 0.035%
- lactate, Saline/analog % [1]: 0.156%
- multiplet acids (1.6 ppm), Saline/analog % [1]: 0.157%
- putrescin, Saline/analog % [1]: -0.042%
- succinate, Saline/analog % [1]: 0.163%
- taurine (3.27 ppm), Saline/analog % [1]: -0.196%
- taurine (3.43 ppm), Saline/analog % [1]: -0.239%
- trigonelline (8.84 ppm), Saline/analog % [1]: -0.008%
- trigonelline (9.13 ppm), Saline/analog % [1]: -0.024%
- vinylacetylglycine, Saline/analog % [1]: 0.163%
- 2-OG (2.45 ppm), Mean (group mean): 11.956
- 2-OG (3.01 ppm), Mean (group mean): 10.103
- 2-PY (8.33 ppm), Mean (group mean): 0.992
- 3-indoxylsulfate (7.51 ppm), Mean (group mean): 1.459
- 3-indoxylsulfate (7.71 ppm), Mean (group mean): 0.842
- 4-PY (7.97 ppm), Mean (group mean): 1.710
- 4-PY (8.55 ppm), Mean (group mean): 0.484
- DMA, Mean (group mean): 5.145
- DMG, Mean (group mean): 1.928
- MA, Mean (group mean): 2.920
- MNA (8.90 ppm), Mean (group mean): 0.407
- MNA (8.97 ppm), Mean (group mean): 0.391
- MNA (9.265 ppm), Mean (group mean): 0.413
- MNA-Nox (7.75 ppm), Mean (group mean): 0.969
- MNA-Nox (8.13 ppm), Mean (group mean): 0.725
- MNA-Nox (8.49 ppm), Mean (group mean): 0.458
- MNA-Nox (8.75 ppm), Mean (group mean): 0.434
- N-carbamoylalanine (2.38 ppm), Mean (group mean): 10.919
- N-carbamoylalanine (3.31 ppm), Mean (group mean): 9.060
- N-isovalerylglycine + oxovalerate (0.92 ppm), Mean (group mean): 15.384
- TMA, Mean (group mean): 10.220
- acetate, Mean (group mean): 4.384
- allantoin, Mean (group mean): 21.272
- carnitine, Mean (group mean): 6.113
- choline, Mean (group mean): 2.053
- cis-aconitate, Mean (group mean): 9.014
- citrate (2.55 ppm), Mean (group mean): 31.737
- citrate (2.69 ppm), Mean (group mean): 28.801
- creatine+creatinine, Mean (group mean): 23.782
- creatine, Mean (group mean): 6.742
- creatinine, Mean (group mean): 11.494
- ethanolamine, Mean (group mean): 7.749
- formate, Mean (group mean): 0.205
- fumarate, Mean (group mean): 0.167
- galactose, Mean (group mean): 0.806
- glucose, Mean (group mean): 3.486
- glycine, Mean (group mean): 6.185
- hexanoylglycine + acids (0.88 ppm), Mean (group mean): 15.251
- hippurate (7.55 ppm), Mean (group mean): 4.857
- hippurate (7.64 ppm), Mean (group mean): 2.465
- hippurate (7.84 ppm), Mean (group mean): 5.092
- lactate, Mean (group mean): 7.122
- multiplet acids (1.6 ppm), Mean (group mean): 12.357
- putrescin, Mean (group mean): 8.544
- succinate, Mean (group mean): 12.532
- taurine (3.27 ppm), Mean (group mean): 20.714
- taurine (3.43 ppm), Mean (group mean): 17.197
- trigonelline (8.84 ppm), Mean (group mean): 0.310
- trigonelline (9.13 ppm), Mean (group mean): 0.125
- vinylacetylglycine, Mean (group mean): 3.494

Reference: PMC5562305, “Impact of novel palmitoylated prolactin-releasing peptide analogs on metabolic changes in mice with diet-induced obesity” (PLoS ONE, 2017)
